Experimental data taken from US20260035338A1, “AMINO LIPID COMPOUND AND LIPID NANOPARTICLE FOR DELIVERING BIOACTIVE INGREDIENT” (SHENZHEN SHENXIN BIOTECHNOLOGY CO., LTD., priority 2022, published 2026).

Tested on: BALB/c mice
Assay: In vivo delivery of Fluc mRNA-encapsulating LNP formulations, luciferase signal by In Vivo Imaging System (IVIS)
Conditions: tail vein injection (IV) 70 μL, female BALB/c mice, 6 hours after injection; for Average number of photons (Total in-vivo flux): LNP formulation encapsulating Fluc mRNA (Lipid:DSPC:CHO-HP:M-DMG-2000 48:10:40.5:1.5); for Average number of photons (Liver) / Average number of photons (Spleen): LNP formulation encapsulating Fluc mRNA
Protocol: Animal preparation: Female BALB/c mice of 6-8 weeks old were selected and raised in an SPF grade breeding room. Animal testing was conducted in strict accordance with the guidelines of national health institutions and animal ethics requirements.
In vivo Delivery: prior to injection of the test LNP formulation, the LNP formulation was gently and repeatedly inverted to thoroughly mix the sample of the formulation. A corresponding amount of the LNP formulation was aspirated with a 1 ml insulin syringe, and the LNP formulation was injected by tail vein injection (IV), with 3 mice in duplicate per formulation. Each mouse was injected with 70 μL of the corresponding LNP formulation encapsulating the luciferase mRNA (Fluc mRNA) prepared in Experimental Example 1.
6 hours after injection of LNP formulations, mice were injected with 200 μL D-Luciferin luciferase developing substrate (Catalog No. 122799; Manufacturer: Perkin Elmer). After the substrate was injected, the mice were anesthetized with isoflurane inhalation, and the injection time of luciferase developing substrate was recorded.
The encapsulation efficiency of the lipid nanoparticle encapsulating luciferase mRNA (Fluc mRNA) with a representative amino lipid compound and the fluorescence expression intensity induced by the same are shown in Table 4, with the LNP formulation containing SM-102, 1001 or ALC-0315 as a control LNP formulation. The preparation method of the control LNP formulation was basically the same as that of the LNP formulations in Experimental Example 1, with the difference lying in that the amino lipid compounds of the present disclosure were replaced with SM-102, 1001 or ALC-0315 in the preparation of the control LNP formulation.

| SMILES | Average number of photons (Total in-vivo flux) | Average number of photons (Liver) | Average number of photons (Spleen) |
| --- | --- | --- | --- |
| CCCCCCCOC(CCCOC(=O)CCCCCCCCC(CCCCCCCCC(=O)OCCCC(OCCCCC)OCCCCC)OC(=O)OCCCN(CC)CC)OCCCCCCC (stereo not drawn) [compound 862] | 8.57E+07 | 1.53E+07 | 6.67E+05 |
| CCCCCCOC(CCCNC(=O)OCCCCCCCC(CCCCCCCCCOC(=O)NCC(OCCCCCC)OCCCCCC)OC(=O)OCCCN(CC)CC)OCCCCCC (stereo not drawn) [compound 459] | 3.42E+07 | 5.09E+06 | 2.52E+06 |
| CCCCCCCCC(=O)OCCCCCCCCOC(=O)CCCCCCCCC(CCCCCCCCC(=O)OCCCC(OCCCCCC)OCCCCCC)OC(=O)OCCCN(CC)CC (stereo not drawn) [compound 441] | 3.09E+07 | 5.62E+06 | 5.52E+05 |
| CCCCCCOC(CCCOC(=O)CCCCCCC(CCCCCCC(=O)OCCCC(OCCCCCC)OCCCCCC)OC(=O)OCCCN(CC)CC)OCCCCCC [compound 2044] | 4.94E+07 | 6.90E+06 | 1.18E+06 |
| CCCCCCCCC(CCCCCCCC)OC(=O)CCCCCCCOC(=O)CCCCCCCCC(CCCCCCCCC(=O)OCCCC(OCCCCCC)OCCCCCC)OC(=O)OCCCN(CC)CC (stereo not drawn) [compound 434] | 2.50E+07 | 3.52E+06 | 1.40E+05 |
| CCCCCCCCOCCCC(=O)N(CCCN(C)C)C(CCCCCCCCC(=O)OCCCC(OCCCCCC)OCCCCCC)CCCCCCCCC(=O)OCCCC(OCCCCCC)OCCCCCC [compound 449] | 1.65E+08 | 2.94E+07 | 7.31E+06 |
| CCCCC/C=C\C/C=C\CCCCCCCC(=O)OCC(COC(=O)CCC(OCCCCCCCC)OCCCCCCCC)COC(=O)OCCCN(CC)CC (stereo not drawn) [compound 1001, reference compound] | 9.68E+07 | 9.38E+06 | 1.65E+07 |
| CCCCCCOC(CCOC(=O)CCCCCCCCC(CCCCCCCCC(=O)OCCC(OCCCCCC)OCCCCCC)OC(=O)OCCCN(C)C)OCCCCCC [compound 2035] | 1.49E+08 | 3.12E+07 | 7.61E+05 |
| CCCCCCOC(CCCOC(=O)CCCCCCCCC(CCCCCCCCC(=O)OCCCC(OCCCCCC)OCCCCCC)OC(=O)NCCCN1CCCCC1C)OCCCCCC (stereo not drawn) [compound 399] | 9.00E+07 | 1.96E+07 | 2.05E+06 |
| CCC/C=C\COC(CCCOC(=O)CCCCCCCCC(CCCCCCCCC(=O)OCCCC(OC/C=C\CCC)OC/C=C\CCC)OC(=O)OCCCN(CC)CC)OC/C=C\CCC [compound 392] | 8.20E+07 | 1.50E+07 | 6.65E+05 |
| CCCCCCOC(CCCOC(=O)CCCCCCCCC(CCCCCCCCC(=O)OCCCC(OCCCCCC)OCCCCCC)N(CCCN(C)C)C(=O)COC)OCCCCCC [compound 450] | 4.38E+07 | 7.96E+05 | 3.18E+06 |
| CCCCCCCCCOC(CCCOC(=O)CCCCCCCCC(CCCCCCCCC(=O)OCCCC(OCCCCCCC)OCCCCCCCC)OC(=O)OCCCN(CC)CC)OCCCCCCCCC (stereo not drawn) [compound 869] | 1.22E+07 | 2.15E+06 | 5.40E+04 |
| CCC/C=C\COC(=O)CCCOC(=O)CCCCCCCCC(CCCCCCCCC(=O)OCCCC(OC/C=C\CCC)OC/C=C\CCC)OC(=O)OCCCN(CC)CC (stereo not drawn) [compound 438] | 5.78E+07 | 8.47E+06 | 1.07E+06 |
| CCCCCCCCCCCOC(=O)CCCCCN(CCO)CCCCCCCC(=O)OC(CCCCCCCC)CCCCCCCC [SM-102, reference compound] | 3.00E+08 | 6.19E+07 | 6.42E+06 |
| CCCCCCCC#CCOC(CCCOC(=O)CCCCCCCCC(CCCCCCCCC(=O)OCCCCCCCCCCOC)OC(=O)OCCCN(CC)CC)OCC#CCCCCCCC (stereo not drawn) [compound 439] | 5.87E+07 | 1.25E+07 | 1.96E+06 |
| CCCCCCOC(CCCOC(=O)CCCCCCCCC(CCCCCCCCC(=O)OCCCC(OCCCCCC)OCCCCCC)N(CCCN(C)C)C(=O)CCC)OCCCCCC [compound 452] | 3.27E+08 | 4.94E+07 | 2.22E+07 |
| CCCCCCCCOC(CCCOC(=O)CCCCCCCCC(CCCCCCCCC(=O)OCCCC(OCCCCCCC)OCCCCCCC)OC(=O)OCCCN(CC)CC)OCCCCCCCC (stereo not drawn) [compound 868] | 3.04E+07 | 5.35E+06 | 1.74E+05 |
| CCCCCOC(CCCCCOC(=O)CCCCCCCCC(CCCCCCCCC(=O)OCCCCCC(OCCCCC)OCCCCC)OC(=O)OCCCN(CC)CC)OCCCCC [compound 390] | 5.23E+07 | 7.04E+06 | 3.84E+05 |
| CCCCCCCCOC(CCCOC(=O)CCCCCCCCC(CCCCCCCCCNC(=O)OCC(OCCCCCC)OCCCCCC)OC(=O)OCCCN(CC)CC)OCCCCCCCC (stereo not drawn) [compound 458] | 1.29E+08 | 2.69E+07 | 2.60E+06 |
| CCCCCCOC(CCCOC(=O)CCCCCCCCC(CCCCCCCCC(=O)OCCCC(OCCCCCC)OCCCCCC)OC(=O)OCCC1CCCN1C)OCCCCCC (stereo not drawn) [compound 398] | 1.79E+08 | 2.78E+07 | 6.36E+05 |
| CCCCCCOC(CCCOC(=O)CCCCCCCCC(CCCCCCCCC(=O)OCCCC(OCCCCCC)OCCCCCC)OC(=O)OCCCN1CCCC1)OCCCCCC [compound 396] | 1.85E+08 | 3.24E+07 | 9.78E+05 |
| CCCCCCCCCOC(CCCOC(=O)CCCCCCCCC(CCCCCCCCC(=O)OCCCC(OCCCCCC)OCCCCCC)OC(=O)OCCCN(C)C)OCCCCCCCCC (stereo not drawn) [compound 856] | 3.40E+07 | 9.34E+06 | 3.58E+05 |
| CCCCCCCCC(CCCCCC)C(=O)OCCCCCCN(CCCCO)CCCCCCOC(=O)C(CCCCCC)CCCCCCCC (stereo not drawn) [ALC-0315, reference compound] | 6.39E+08 | 1.23E+08 | 3.45E+06 |
| CCCCCCCOC(CCCOC(=O)CCCCCCCCC(CCCCCCCCC(=O)OCCCC(OCCCCCCC)OCCCCCCC)OC(=O)OCCCN(C)C)OCCCCCCC [compound 490] | 2.65E+07 | 3.68E+06 | 5.06E+05 |
| CCCCCCCOC(CCCOC(=O)CCCCCCCCC(CCCCCCCCC(=O)OCCCC(OCCCCCCC)OCCCCCCC)OC(=O)N(CCCC(=O)OCCCCC)CCCN(C)C)OCCCCCCC [compound 381] | 2.46E+08 | 4.40E+07 | 1.96E+07 |
| CCCCCCOC(CCCOC(=O)OCCCCCCCCCC(CCCCCCCCCOC(=O)OCC(OCCCCCC)OCCCCCC)OC(=O)OCCCN(CC)CC)OCCCCCC (stereo not drawn) [compound 457] | 1.43E+07 | 1.55E+06 | 2.70E+06 |
| CCCCCCOC(CCC(=O)OCC(COC(=O)CCC(OCCCCCC)OCCCCCC)COC(=O)OCCCN(C)C)OCCCCCC [compound 2021] | 4.49E+06 | 1.19E+06 | 1.04E+06 |
| CCCCCCOC(CCCOC(=O)CCCCCCCCC(CCCCCCCCC(=O)OCCCC(OCCCCCC)OCCCCCC)NC(=O)OCCCN(CC)CC)OCCCCCC [compound 393] | 2.80E+08 | 5.44E+07 | 1.00E+07 |
| CCCCCCCCCOC(CCCOC(=O)CCCCCCCCC(CCCCCCCCC(=O)OCCCC(OCCCCCC)OCCCCCC)OC(=O)OCCCN(CC)CC)OCCCCCCCCC (stereo not drawn) [compound 867] | 2.15E+07 | 4.12E+06 | 1.36E+05 |
| CCCCCCCCC(=O)OCCCCCCCCOC(=O)CCCCCCCCC(CCCCCCCCC(=O)OCCCC(OCCCCCC)OCCCCCC)OC(=O)OCCCN(CC)CC (stereo not drawn) [compound 433] | 2.56E+07 | 3.83E+06 | 2.44E+05 |
